Test results: patent US12240840B2, “Amide-substituted heterocyclic compounds for the treatment of conditions related to the modulation of IL-12, IL-23 and/or IFN-alpha” (BRISTOL-MYERS SQUIBB COMPANY, priority 2018, dated 2025)

System: IFNα-induced pSTAT5 (pY694) in CD3 positive cells of human whole blood
Experiment: IFNα-Induced STAT Phosphorylation in Human Whole Blood
Format: cell-based
Settings: Homo sapiens, 1 h compound incubation, 1000 U/mL recombinant human IFNα A/D for 15 min, pSTAT5 in CD3 positive population, read-out: Human WB IFNα-Induced Stat Phosph. (IC50)
Method: IFNα-Induced STAT Phosphorylation in Human Whole Blood
After an hour long incubation with compound, human whole blood (drawn with either EDTA or ACD-A as anti-coagulant) was stimulated with 1000 U/mL recombinant human IFNα A/D (R&D Systems 11200-2) for 15 min. The stimulation was stopped by adding Fix/Lyse buffer (BD 558049). Cells were stained with a CD3 FITC antibody (BD 555916), washed, and permeabilized on ice using Perm III buffer (BD 558050). Cells were then stained with an Alexa-Fluor 647 pSTAT5 (pY694) antibody (BD 612599) for 30 min prior to analysis on the FACS Canto II. The amount of pSTAT5 expression was quantitated by median fluorescence intensity after gating on the CD3 positive population.
IFNα-Induced STAT Phosphorylation in Human Whole Blood Inhibition Data ND—no data available

Compound | IC50 [nM]
[2H]C([2H])([2H])NC(=O)c1nnc(NC(=O)C2CC2)cc1Nc1cccc(-c2cc(C(=O)NCCCOC)n(C)n2)c1OC [Example 527] | 950
[2H]C([2H])([2H])NC(=O)c1nnc(Nc2cc(C(C)(C)O)ccn2)cc1Nc1cc(F)cc(-c2cc(C(C)(C)O)n(C)n2)c1OC [Example 547] | 400
[2H]C([2H])([2H])NC(=O)c1nnc(NC(=O)C2CC2)cc1Nc1cccc(-n2cc(CNC)nn2)c1OC [Example 5] | 3300
[2H]C([2H])([2H])NC(=O)c1nnc(NC(=O)C2CC2)cc1Nc1cccc(-c2cnn(CCNS(C)(=O)=O)c2)c1OC [Example 560] | 2210
[2H]C([2H])([2H])NC(=O)c1cnc(NC(=O)CC2CC2)cc1Nc1cccc(-c2noc(COC)n2)c1OC [Example 86] | 300
[2H]C([2H])([2H])NC(=O)c1nnc(NC(=O)C2CC2)cc1Nc1cccc(-c2cnn(CCNC(=O)COC)c2)c1OC [Example 562] | 650
[2H]C([2H])([2H])NC(=O)c1nnc(NC(=O)C2CC2)cc1Nc1cccc(-c2nc(CN3CCN(C(C)=O)CC3=O)no2)c1OC [Example 140] | 330
[2H]C([2H])([2H])NC(=O)c1nnc(NC(=O)C2CC2)cc1Nc1cccc(-c2nc([C@H](COC(C)(C)C)NC(=O)OC(C)(C)C)no2)c1OC [Example 197] | 6200
[2H]C([2H])([2H])NC(=O)c1nnc(NC(=O)C2CC2)cc1Nc1cccc(-c2nc(CN3CC4CN(C(=O)OC)CC4C3)no2)c1OC (stereo not shown) [Example 234] | 300
[2H]C([2H])([2H])NC(=O)c1nnc(Nc2ccc(OC)nn2)cc1Nc1cccc(-c2ncc(CNC(=O)OC(C)(C)C)s2)c1OC [Example 388] | > 10000
[2H]C([2H])([2H])NC(=O)c1nnc(NC(=O)C2CC2)cc1Nc1cccc(-c2nc(CNC(=O)CN3CCN(S(C)(=O)=O)CC3)no2)c1OC [Example 163] | 1760
[2H]C([2H])([2H])NC(=O)c1nnc(NC(=O)C2CC2)cc1Nc1cc(F)cc(-c2cc(C(=O)N3CCc4ccccc4C3)n(C)n2)c1OC [Example 512] | 2560
[2H]C([2H])([2H])NC(=O)c1nnc(NC(=O)C2CC2)cc1Nc1cccc(-c2noc(C(=O)N3CCS(=O)(=O)CC3)n2)c1OC [Example 20] | 1500
[2H]C([2H])([2H])NC(=O)c1nnc(NC(=O)C2CC2)cc1Nc1cccc(-c2noc(CNC(C)=O)n2)c1OC [Example 31] | 380
[2H]C([2H])([2H])NC(=O)c1nnc(NC(=O)C2CC2)cc1Nc1cccc(-c2nc(C)c(C(=O)NCCC3CCCN3C)s2)c1OC (stereo not shown) [Example 355] | 380
[2H]C([2H])([2H])NC(=O)c1nnc(NC(=O)C2CC2)cc1Nc1cccc(-c2cc(C)nn2CCN)c1OC [Example 463] | 800
[2H]C([2H])([2H])NC(=O)c1nnc(NC(=O)C2CC2)cc1Nc1cccc(-c2cc(C(=O)NC(COC)COC)n(C)n2)c1OC [Example 540] | 460
[2H]C([2H])([2H])NC(=O)c1nnc(NC(=O)C2CC2)cc1Nc1cccc(-c2nc(CC(=O)NCC)no2)c1OC [Example 178] | 550
[2H]C([2H])([2H])NC(=O)c1nnc(NC(=O)C2CC2)cc1Nc1cccc(-c2ncc(C(=O)NCCCCC)s2)c1OC [Example 316] | 330
[2H]C([2H])([2H])NC(=O)c1nnc(NC(=O)C2CC2)cc1Nc1cccc(-c2nc(CNC(=O)COC)no2)c1OC [Example 152] | 1310
[2H]C([2H])([2H])NC(=O)c1nnc(NC(=O)C2CC2)cc1Nc1cccc(-c2nc(CN3CCC(O)CC3)no2)c1OC [Example 207] | 480
[2H]C([2H])([2H])NC(=O)c1nnc(NC(=O)C2CC2)cc1Nc1cccc(-c2csc(C(=O)NCCOC)n2)c1OC [Example 566] | 680
[2H]C([2H])([2H])NC(=O)c1nnc(NC(=O)C2CC2)cc1Nc1cccc(-c2nc(C)c(C(=O)N3CCC(CCN4CCCC4)CC3)s2)c1OC [Example 371] | 310
[2H]C([2H])([2H])NC(=O)c1nnc(NC(=O)C2CC2)cc1Nc1cccc(-c2ncc(CNC(=O)COC)s2)c1OC [Example 263] | 830
[2H]C([2H])([2H])NC(=O)c1nnc(Nc2ccc(C)nn2)cc1Nc1cccc(-c2ccn(CCNC(=O)COC)n2)c1OC [Example 542] | 890
COc1c(Nc2cc(NC(=O)C3CC3)nnc2C(N)=O)cccc1-c1ncc(C(=O)N2CCOCC2)o1 [Example 414] | 310
[2H]C([2H])([2H])NC(=O)c1nnc(NC(=O)C2CC2)cc1Nc1cccc(-c2nc(C)c(C(=O)NCC3CCN(C)C3)s2)c1OC (stereo not shown) [Example 368] | 350
[2H]C([2H])([2H])NC(=O)c1nnc(NC(=O)C2CC2)cc1Nc1cccc(-c2ncc(CNC(=O)OC)s2)c1OC [Example 266] | 2530

Stronger by IC50, values ahead:

IC50 [nM] | Compound
180 | [2H]C([2H])([2H])NC(=O)c1nnc(NC(=O)C2CC2)cc1Nc1cccc(-c2ncc(N)s2)c1OC [Example 282]
270 | [2H]C([2H])([2H])NC(=O)c1nnc(Nc2ccc(OC)nn2)cc1Nc1cccc(-c2ncc(CNC(C)=O)s2)c1OC [Example 387]
200 | [2H]C([2H])([2H])NC(=O)c1nnc(NC(=O)C2CC2)cc1Nc1cccc(-c2ccn(CCNC(=O)COC)n2)c1OC [Example 469]
40 | [2H]C([2H])([2H])NC(=O)c1nnc(NC(=O)C2CC2)cc1Nc1cccc(-c2ncc(C(=O)N3CCN(CCO)CC3)s2)c1OC [Example 269]
80 | [2H]C([2H])([2H])NC(=O)c1cnc(NC(=O)C2CC2)cc1Nc1cccc(-c2cnn(CCN)n2)c1OC [Example 442]
100 | [2H]C([2H])([2H])NC(=O)c1nnc(Nc2cc(C)n(C)n2)cc1Nc1cccc(-c2ncc(C(=O)N3CCS(=O)(=O)CC3)s2)c1OC [Example 382]
210 | COc1c(Nc2cc(NC(=O)C3CC3)nnc2C(N)=O)cccc1-c1noc([C@H]2CCCN2S(C)(=O)=O)n1 [Example 53]
190 | [2H]C([2H])([2H])NC(=O)c1nnc(NC(=O)C2CC2)cc1Nc1cccc(-c2cc(C(=O)N3CCC(OC)C3)n(C)n2)c1OC (stereo not shown) [Example 522]
24 | COc1c(Nc2cc(NC(=O)C3CC3)nnc2C(N)=O)cccc1-c1noc(CNS(=O)(=O)c2ccccc2)n1 [Example 13]
90 | [2H]C([2H])([2H])NC(=O)c1nnc(NC(=O)C2CC2)cc1Nc1cccc(-c2ncc(C(=O)NCCOC)s2)c1OC [Example 271]
30 | [2H]C([2H])([2H])NC(=O)c1nnc(NC(=O)C2CC2)cc1Nc1cccc(-c2ncc(C(=O)NCCN3CCCC3)s2)c1OC [Example 301]
25 | CCS(=O)(=O)NCc1nc(-c2cccc(Nc3cc(NC(=O)C4CC4)nnc3C(N)=O)c2OC)no1 [Example 48]
100 | [2H]C([2H])([2H])NC(=O)c1cnc(NC(=O)C2CC2)cc1Nc1cccc(-c2ncc(C(C)(C)O)s2)c1OC [Example 270]
100 | [2H]C([2H])([2H])NC(=O)c1nnc(NC(=O)C2CC2)cc1Nc1cccc(-c2nc([C@@H](N)[C@@H](C)O)no2)c1OC [Example 189]
130 | [2H]C([2H])([2H])NC(=O)c1nnc(NC(=O)C2CC2)cc1Nc1cccc(-c2nc([C@H](C)NS(C)(=O)=O)no2)c1OC [Example 184]
200 | [2H]C([2H])([2H])NC(=O)c1nnc(Nc2ccc(C)nn2)cc1Nc1cccc(-c2cn(CCN3CCOCC3)nn2)c1OC [Example 424]
140 | [2H]C([2H])([2H])NC(=O)c1nnc(NC(=O)C2CC2)cc1Nc1cccc(-c2nc([C@H](N)[C@H](C)O)no2)c1OC [Example 204]
70 | [2H]C([2H])([2H])NC(=O)c1nnc(NC(=O)C2CC2)cc1Nc1cccc(-c2noc(CCS(C)(=O)=O)n2)c1OC [Example 78]
90 | COc1c(Nc2cc(NC(=O)C3CC3)nnc2C(N)=O)cccc1-c1noc([C@@H](C)N(C)S(C)(=O)=O)n1 [Example 52]
180 | COc1c(Nc2cc(NC(=O)C3CC3)nnc2C(N)=O)cccc1-c1ncc(CN2CCOCC2)s1 [Example 401]
240 | [2H]C([2H])([2H])NC(=O)c1nnc(NC(=O)C2CC2)cc1Nc1cccc(-c2noc([C@@H](C)O)n2)c1OC [Example 85]
180 | [2H]C([2H])([2H])NC(=O)c1cnc(NC(=O)C2CC2)cc1Nc1cccc(-c2nc(CO)no2)c1OC [Example 217]
160 | [2H]C([2H])([2H])NC(=O)c1nnc(NC(=O)C2CC2)cc1Nc1cccc(-c2cnn(CCNC(=O)COC)n2)c1OC [Example 433]
170 | COc1c(Nc2cc(NC(=O)C3CC3)nnc2C(N)=O)cccc1-c1ncc(C(=O)N(C)C)o1 [Example 413]
60 | [2H]C([2H])([2H])NC(=O)c1cnc(NC(=O)C2CC2)cc1Nc1cccc(-c2nc(CN3CCOCC3)no2)c1OC [Example 125]
110 | [2H]C([2H])([2H])NC(=O)c1nnc(NC(=O)C2CC2)cc1Nc1cccc(-c2ncc(C(=O)N(C)CC)s2)c1OC [Example 291]
180 | [2H]C([2H])([2H])NC(=O)c1nnc(NC(=O)C2CC2)cc1Nc1cccc(-c2noc(C3CCCO3)n2)c1OC (stereo not shown) [Example 81]
50 | [2H]C([2H])([2H])NC(=O)c1nnc(NC(=O)C2CC2)cc1Nc1cccc(-c2ncc(C(=O)NCC3CCCCN3C)s2)c1OC (stereo not shown) [Example 329]
70 | [2H]C([2H])([2H])NC(=O)c1nnc(NC(=O)C2CC2)cc1Nc1cccc(-c2ncc(C(=O)NC[C@H]3CCCN3CC)s2)c1OC [Example 330]
230 | [2H]C([2H])([2H])NC(=O)c1nnc(NC(=O)C2CC2)cc1Nc1cccc(-c2ncc(CO)s2)c1OC [Example 257]
